# Results as given in patent publication US4544512A, “Tridecyloxy- or tetradecyloxy-propane derivatives” (Takeda Chemical Industries, Ltd., priority 1980, dated 1985).
# Like-named read-outs stand apart in the source and are kept apart here.
# Assays:
# Assay type in all cases: cell-based
# [1] = system: Trichophyton mentagrophytes IFO (DT-66); assay: Antitrichophyton activity, serial dilution method (MIC); details: Sabouraud's agar medium
# Description: (§1) Referring to the antitrichophyton activity shown in Table 7, MIC values of tested compounds were determined by the serial dilution method using Sabouraud's agar medium.
# [2] = system: Trichophyton rubrum IFO 5467 (DT-63); assay: as above; details: IFO5467, Sabouraud's agar medium
# Description: as §1
# Pyricularia oryzae = assay: microbe, parasite or virus in culture; details: read-out: MIC Pyricularia oryzae (rice blast)
# Cochliobolus miyabeanus = assay: Antifungal activity, serial dilution method (MIC); details: Bipolaris oryzae, read-out: MIC Cochliobolus miyabeanus (rice Helminthosporium leaf spot)
# Gibberella fujikuroi = assay: Antifungal activity, serial dilution method (MIC); details: Fusarium fujikuroi, read-out: MIC Gibberella fujikuroi (rice Bakanae-disease)
# Botrytis cinerea = assay: Antifungal activity, serial dilution method (MIC); details: read-out: MIC Botrytis cinerea (gray mold)
# Alternaria solani = assay: Antifungal activity, serial dilution method (MIC); details: 1% glucose-bouillon agar medium, read-out: MIC Alternaria solani (potato early blight)
# Leptosphaeria salvinii = assay: Antifungal activity, serial dilution method (MIC); details: Nakataea oryzae, read-out: MIC Leptosphaeria salvinii (rice stem rot)
# [3] = system: Colletotrichum lagenarium; assay: Antifungal activity, serial dilution method (MIC); details: Colletotrichum orbiculare, read-out: MIC Colletotrichum lagenarium (cucumber anthracnose)
# [4] = system: Cryptococcus unigtullatas; assay: Antimycotic activity, paper disk inhibition zone; details: 48 h, concentration of 3 mg/ml, paper disk 8 mm, 37° C., 2 days, read-out: Inhibition zone diameters
# Description: Referring to the antimycotic activity presented in Table 5, Cryptococcus unigtullatas and others were used as the test microbes, a paper disk (8 mm in diameter) was immersed in an aqueous solution of each test compound having a concentration of 3 mg/ml, air dried and placed on an agar medium, then incubation was conducted at 37° C. for 2 days, and the diameter (mm) of the inhibition zone was measured.
# Tetrahymena pyriformis W = assay: Antiprotozoal activity, broth dilution method (MIC); details: 28° C., 44-48 hours, read-out: MIC against Tetrahymena pyriformis W
# Description: Referring to the antiprotozoal activity given in Table 4, the microbial growth inhibiting activity (MIC) of each compound of this invention was assayed by the broth dilution method by incubating Tetrahymena pyriformis W strain as the test organism at 28° C. for 44-48 hours, using a test culture medium comprising 20 g of Tryptose peptine (Difco), 1 g of yeast extract, 2 g of glucose. 1,000 ml of distilled water and 10 ml of 1M phosphate buffer (pH 7.0).
# [5] = system: human promyelocytic leukemia HL-60 cells; assay: Induced differentiation of human promyelocytic leukemia HL-60 cells; details: six day incubation; optimal dose: C00021 1 μg/ml, drawing 22 4 μg/ml
# Description: By employing soft-agar medium, incubation of human promyelocytic leukemia HL-60 cells was conducted in the presence of a drug at its optimal concentration. It was observed that the leukemia HL-60 cells were gradually changing into mature myeloid cells or phagocytic cells as the induced differentiation proceeded. After six day incubation, number of these cells was counted, and the respective ratios (%) relative to the total number of these cells were calculated, as shown in Table 3. Additionally stating, these changes were not observed under the conditions devoid of the drugs.
# [6] = system: mouse myeloid leukemia M1 cells; assay: Induced differentiation of mouse myeloid leukemia M1 cells; details: at optimal dose: C00019 1 μg/ml, drawing 20 2 μg/ml
# Description: By employing soft-agar medium having similar components to those in Test Example 1, incubation of myeloid leukemia (M1) cells harvested from mice was conducted in the presence of the test compound in its optimal concentration. Observation on various biological and biochemical properties caused by induced differentiation was conducted. In Table 2 are given the results obtained by determination of the degree of the induced differentiation employing, as the indexes, among those properties, morphological changes (matured granulocytes, matured macrophages, others caused by changes in appearance of cells at the stage of differentiation),phagocytic activity (plastic small pieces.phagocytosis) and lysozyme activity. Additionally stating, these morphological changes were not observed under the conditions devoid of the drugs.
# [7] = 1% glucose-bouillon agar medium
structure (smiles),measurement,setting,value
"CCCCCCCCCCCCCOCC(COP(=O)([O-])OCC[N+](C)(C)C)OC (centres unmarked) [R = C13 H27, A = drawing 33]",MIC,[1],6.25 µg/mL
same,MIC,[2],3.12 µg/mL
"CCCCCCCCCCCCCCOCC(COP(=O)([O-])OCC[n+]1ccccc1)OC (centres unmarked) [R = C14 H29, A = drawing 36]",MIC,[1],3.12 µg/mL
same,MIC,[2],1.56 µg/mL
CCCCCCCCCCCCCCOCCCOP(=O)([O-])OCC[N+](C)(C)C [Compound (B) R = C14 H29],MIC,Pyricularia oryzae,6.25 µg/mL
same,MIC,Cochliobolus miyabeanus,12.5 µg/mL
same,MIC,Gibberella fujikuroi,12.5 µg/mL
same,MIC,Botrytis cinerea,6.25 µg/mL
same,MIC,Alternaria solani,50 µg/mL
same,MIC,Leptosphaeria salvinii,6.25 µg/mL
same,MIC,[3],6.25 µg/mL
CCCCCCCCCCCCCCOCCCOP(=O)([O-])OCC[N+](C)(C)C [drawing 29 R = C14 H29],zone of inhibition at 3000 µg/mL,[4],21 mm
CCCCCCCCCCCCCCOCC(COP(=O)([O-])OCC[N+](C)(C)C)OC (centres unmarked) [Compound (A) R = C14 H29],MIC,Pyricularia oryzae,3.12 µg/mL
same,MIC,Cochliobolus miyabeanus,12.5 µg/mL
same,MIC,Gibberella fujikuroi; [7],25 µg/mL
same,MIC,Botrytis cinerea; [7],6.25 µg/mL
same,MIC,Alternaria solani,100 µg/mL
same,MIC,Leptosphaeria salvinii,3.12 µg/mL
same,MIC,[3]; [7],25 µg/mL
CCCCCCCCCCCCCOCCCOP(=O)(O)OCCN [drawing 26 R = C13 H27],MIC,Tetrahymena pyriformis W,0.4 µg/mL
CCCCCCCCCCCCCCCCCCOCC(COP(=O)([O-])OCC[N+](C)(C)C)OC (centres unmarked) [drawing 23 R = C18 H37],MIC,Tetrahymena pyriformis W,1 µg/mL
"CCCCCCCCCCCCCCCCCCOCC(COP(=O)([O-])OCC[N+](C)(C)C)OC (centres unmarked) [drawing 21, reference compound]",Mature myeloid cells,[5],43.0%
same,NBT (nitro blue tetrazolium) reduction,[5],47.8%
same,Phagocytic cells,[5],39.8%
CCCCCCCCCCCCCOCC(COP(=O)([O-])OCC[N+](C)(C)C)OC (centres unmarked) [drawing 27 R = C13 H27],zone of inhibition at 3000 µg/mL,[4],19 mm
CCCCCCCCCCCCOCC(COP(=O)([O-])OCC[N+](C)(C)C)OC (centres unmarked) [drawing 27 R = C12 H25],zone of inhibition at 3000 µg/mL,[4],15 mm
CCCCCCCCCCCCCCCCCCOCC(COP(=O)(O)OCCN)OC (centres unmarked) [drawing 24 R = C18 H37],MIC,Tetrahymena pyriformis W,4 µg/mL
CCCCCCCCCCCCCCCCCCOCC(COP(=O)(O)OCCN)OC (centres unmarked) [drawing 28 R = C18 H37],zone of inhibition at 3000 µg/mL,[4],< 5 mm
"CCCCCCCCCCCCCCCCCCOCCCOP(=O)([O-])OCC[N+](C)(C)C [Compound (B) R = C18 H37, reference compound]",MIC,Pyricularia oryzae,12.5 µg/mL
same,MIC,Cochliobolus miyabeanus,> 100 µg/mL
same,MIC,Gibberella fujikuroi; [7],> 100 µg/mL
same,MIC,Botrytis cinerea; [7],25 µg/mL
same,MIC,Alternaria solani,> 100 µg/mL
same,MIC,Leptosphaeria salvinii; [7],50 µg/mL
same,MIC,[3]; [7],> 100 µg/mL
CCCCCCCCCCCCOCC(COP(=O)([O-])OCC[N+](C)(C)C)OC (centres unmarked) [drawing 23 R = C12 H25],MIC,Tetrahymena pyriformis W,0.4 µg/mL
CCCCCCCCCCCCOCCCOP(=O)([O-])OCC[N+](C)(C)C [drawing 29 R = C12 H25],zone of inhibition at 3000 µg/mL,[4],19 mm
CCCCCCCCCCCCCCOCC(COP(=O)([O-])OCC[N+](C)(C)C)OC (centres unmarked) [drawing 20],Phagocytic cells,[6]; None 2.0 %,25.9%
same,Morphological change,[6]; None 2.1 %,53.4%
same,Lysozyme activity,[6]; None 2.2,80.1 units/mg protein
CCCCCCCCCCCCCOCCCOP(=O)([O-])OCC[N+](C)(C)C [Compound (B) R = C13 H27],MIC,Pyricularia oryzae,6.25 µg/mL
same,MIC,Cochliobolus miyabeanus,6.25 µg/mL
same,MIC,Gibberella fujikuroi; [7],25 µg/mL
same,MIC,Botrytis cinerea,6.25 µg/mL
same,MIC,Alternaria solani,25 µg/mL
same,MIC,Leptosphaeria salvinii; [7],12.5 µg/mL
same,MIC,[3]; [7],1.56 µg/mL
CCCCCCCCCCCCCOCCCOP(=O)([O-])OCC[N+](C)(C)C [drawing 29 R = C13 H27],zone of inhibition at 3000 µg/mL,[4],20 mm
CCCCCCCCCCCCCCOCCCOP(=O)(O)OCCN [drawing 26 R = C14 H29],MIC,Tetrahymena pyriformis W,0.4 µg/mL
"CCCCCCCCCCCCOCC(COP(=O)([O-])OCC[N+](C)(C)C)OC (centres unmarked) [Compound (A) R = C12 H25, reference compound]",MIC,Pyricularia oryzae,25 µg/mL
same,MIC,Cochliobolus miyabeanus,> 100 µg/mL
same,MIC,Gibberella fujikuroi; [7],> 100 µg/mL
same,MIC,Botrytis cinerea; [7],50 µg/mL
same,MIC,Alternaria solani,50 µg/mL
same,MIC,Leptosphaeria salvinii; [7],25 µg/mL
same,MIC,[3]; [7],12.5 µg/mL
CCCCCCCCCCCCCCOCC(COP(=O)([O-])OCC[N+](C)(C)C)OC (centres unmarked) [drawing 22],Mature myeloid cells,[5],91.3%
same,NBT (nitro blue tetrazolium) reduction,[5],87.0%
same,Phagocytic cells,[5],68.2%
